According to patent US20210403415A1, “COMPOUNDS AND METHODS TO ATTENUATE TUMOR PROGRESSION AND METASTASIS” (THE TRUSTEES OF INDIANA UNIVERSITY, priority 2018, published 2021):

Assays:
[1] = molecular target: T1, GST-TEAD4 (Homo sapiens, UniProt Q15561); assay: Size-exclusion chromatography for protein aggregation; settings: 100 μM, 24 h at 4° C.
T1 construct: TEAD4 (217-434), TEAD4 (217-434) Cys367Ser mutant and Yap1 (Full-length) were expressed as GST-fusion proteins; made in house; host or cells: E. coli BL-21 (DE3), pGEX-6P-1
T1 sequence (Q15561 217-434): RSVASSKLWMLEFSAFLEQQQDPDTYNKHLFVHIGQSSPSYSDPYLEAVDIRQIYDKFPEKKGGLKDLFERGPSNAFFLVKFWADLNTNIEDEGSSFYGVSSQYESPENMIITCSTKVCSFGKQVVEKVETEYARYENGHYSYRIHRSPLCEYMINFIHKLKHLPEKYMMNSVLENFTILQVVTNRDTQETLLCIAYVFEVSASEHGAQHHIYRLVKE
Description: 2 ml of 6.3 μM GST-TEAD4 in PBS was incubated with 100 μM 2 compound 2 in 2% v/v DMSO or DMSO without compound for 24 h at 4° C. After the incubation, the samples were injected into a HiLoad 26/600 Superdex 200 pg SEC column, pre-equilibrated with PBS. The elution profile of the column was analyzed for protein aggregation.

[2] = tested on: TEAD4 transcriptional activity; assay: TEAD4 luciferase reporter in GBM43 cells; type: cell-based, human
Description: FIG. 8A illustrates relative percent viability of spheroids of patient-derived GBM43 glioblastoma cell lines were grown and treated with compound 1, compound 2, and compound 5; mean±s.d.; n=3 biological replicates. FIG. 8B illustrates the measured activity of the TEAD4 luciferase reporter in GBM43 cells treated with either vehicle or compound 2. CNYT corresponds to no transfection; mean±s.d.; n=3 biological replicates. FIG. 8C illustrates qRT-PCR analysis of CTGF levels following treatment of HEK-293T cells with compounds; mean±s.d.; n=3 biological replicates. FIG. 8D illustrates relative percent viability of spheroids of patient-derived GBM43 glioblastoma cell lines were grown and treated with temozolomide; mean±s.d. of biological replicates (n=3). P values were calculated using two-tailed t-tests. *P<0.05, **P<0.005, ***P<0.0005.

[3] = molecular target: TEAD4.Yap1 interaction (Homo sapiens, UniProt Q15561); assay: Co-immunoprecipitation of Myc-tagged TEAD4 with Flag-tagged Yap1 in HEK293 cells; type: cell-based; parameters: expressed in transfected cells; host or cells: HEK293; settings: 5 μM, 48 hours
TEAD4.Yap1 interaction, sequence (Q15561 whole entry): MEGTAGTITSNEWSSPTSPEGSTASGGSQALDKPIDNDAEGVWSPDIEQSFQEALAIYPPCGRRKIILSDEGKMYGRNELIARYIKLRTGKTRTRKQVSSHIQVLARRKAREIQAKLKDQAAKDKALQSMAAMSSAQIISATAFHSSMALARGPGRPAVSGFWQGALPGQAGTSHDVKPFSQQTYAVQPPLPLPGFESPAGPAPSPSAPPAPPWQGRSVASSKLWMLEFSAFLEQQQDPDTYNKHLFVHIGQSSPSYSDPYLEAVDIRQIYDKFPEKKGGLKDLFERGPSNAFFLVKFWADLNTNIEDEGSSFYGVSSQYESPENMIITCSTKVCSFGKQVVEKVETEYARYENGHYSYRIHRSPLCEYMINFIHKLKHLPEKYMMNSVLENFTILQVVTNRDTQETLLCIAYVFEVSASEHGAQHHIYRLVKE
Description: HEK293 cells transfected with Flag-YAP1 alone or in combination with myc-TEAD4 were incubated with DMSO or the indicated amount of compounds for 48 hours. Cells were harvested in lysis buffer (50 mM Tris-HCl, pH 7.3, 150 mM NaCl, 0.5 mM EDTA, 1% Triton X-100, PhosSTOP phosphatase inhibitor cocktail, and complete EDTA-free protease inhibitors cocktail). Extracts were immunoprecipitated with magnetic beads coupled to the M2 (anti-Flag) antibody (Sigma-Aldrich) for 4 h at 4° C. Dynabeads were then washed and bound proteins were denatured and eluted according to the manufacturer's instructions. Relative levels of myc-TEAD4 from each complex was then measured by immunoblot analysis with the anti-c-Myc antibody (1:5,000, Sigma-Aldrich).

aggregation of GST-TEAD4 [1]: No significant aggregation
SMILES: O=C(CCl)c1ccccc1Nc1cccc(C(F)(F)F)c1 [Compound 2, 2-chloro-1-(2-((3-(trifluoromethyl)phenyl)amino)phenyl)ethanone]
TEAD4 transcriptional activity in GBM43 cells [2]: inhibited TEAD4 transcriptional activity | co-immunoprecipitation of Myc-tagged TEAD4 with Flag-Tagged Yap1 [3]: significant loss of co-immunoprecipitation
